Where “and” joins values, the source holds several entries; their conditions need not be identical. Identical values can stand only once.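 Each compound was tested at five concentrations against cells in 96-well plates for 48 hours. Definition used: TGI = concentration required for complete inhibition of growth.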
What follows are molecules tested on RXF 393 renal (assay: NCI anticancer screen, dose series, 48 h).
`CN(C)CCOC1(Cc2ccc(F)cc2)CCC(C(C)(C)C)CC1` (stereo unspecified) gave a TGI of 8.04 µM.
For `On1c(-c2ccccc2)nc2ccccc2c1=S`, the TGI was greater than 100 µM.
Molecule `CSc1cnc2ccccc2c1SC1CN(Cc2ccccc2)c2ccccc2C1=O` (stereo unspecified) has a TGI greater than 100 µM.
Molecule `C=CC[C@]12C=C(OC)[C@@H](O)[C@](OC)(C(c3cc(OC)c4c(c3)OCO4)[C@H]1C)[C@H]2OC(C)=O` (stereo partly specified) has a TGI greater than 100 µM.
Work on `Cn1c2ccccc2c(=NNc2cccc(C(=O)O)c2)c2ccccc21` yielded a TGI of 22 µM.

What follows are molecules tested on SF-295 CNS (assay: NCI anticancer screen, dose series, 48 h).
Molecule `CCOC(=O)NC(Nc1ccc([N+](=O)[O-])cc1)(C(F)(F)F)C(F)(F)F` has a TGI greater than 100 µM.
`C[N+]12CCCCC1C(CN1C(=O)Cc3c4ccccc4c(c4ccccc34)CC1=O)CCC2` (stereo unspecified) gave a TGI greater than 100 µM.
Molecule `CC(=O)O[C@H]1CC[C@@]2(C)C(=CC[C@H]3[C@@H]4C[C@H](N5CCOCC5)[C@H](OC(C)=O)[C@@]4(C)CC[C@@H]32)C1` has a TGI greater than 100 µM.
Molecule `CCC1(C)C=Cc2c(cc(O)c3c(=O)c4ccccc4n(C)c23)O1` (stereo unspecified) has a TGI greater than 10 µM.
Molecule `O=[N+]([O-])/C(C(Cl)=C(Cl)Cl)=C(\N1CCCCC1)n1cncn1` has a TGI of 35.8 µM.
Work on `O=C1c2cccnc2-c2nccc3c2c1nc1cc(Br)ccc13` yielded a TGI of 0.72 µM.
`NC(CCC(=O)NC(CSCC1C(=O)Nc2ccccc21)C(=O)NCC(=O)O)C(=O)O` (stereo unspecified) gave a TGI greater than 45.6 µM.
Molecule `NNC(=O)CSc1nc2ccccc2c(=O)n1N` has a TGI greater than 100 µM.
Molecule `CC(=O)NC1c2ccccc2C(C)(C)C12CCC1(CC2)OCCO1` (stereo unspecified) has a TGI greater than 100 µM.
In the case of `CC1=NNC(=O)C1C(CC(=O)c1c[nH]c2ccccc12)C(=O)O` (stereo unspecified), the TGI is reported as greater than 100 µM.
`CN1COCc2c1ccc1cc3ccc4c(c3nc21)COCN4S(C)(=O)=O` gave a TGI greater than 100 µM.
For `Oc1cccc(-c2nc3cc(F)ccc3s2)c1`, the TGI was 50.7 µM.
`CC(C(O)Cc1ccccc1)N(C)N=Nc1ccc([N+](=O)[O-])cc1` (stereo unspecified) was tested, and the TGI was 46.2 µM.
Molecule `CC(C)NC(=O)OCCN=c1c2ccccc2ccc2ccccc12` has a TGI greater than 100 µM.
In the case of `CN(C)CCOC1(Cc2ccc(F)cc2)CCC(C(C)(C)C)CC1` (stereo unspecified), the TGI is reported as 11.9 µM and 13.1 µM.
Molecule `On1c(-c2ccccc2)nc2ccccc2c1=S` has a TGI greater than 100 µM.
`CSc1cnc2ccccc2c1SC1CN(Cc2ccccc2)c2ccccc2C1=O` (stereo unspecified) gave a TGI greater than 100 µM.
`C=CC[C@]12C=C(OC)[C@@H](O)[C@](OC)(C(c3cc(OC)c4c(c3)OCO4)[C@H]1C)[C@H]2OC(C)=O` (stereo partly specified) was tested, and the TGI was greater than 100 µM.
In the case of `Cn1c2ccccc2c(=NNc2cccc(C(=O)O)c2)c2ccccc21`, the TGI is reported as 58.5 µM.

What follows are molecules tested on NCI-H23 lung (assay: NCI anticancer screen, dose series, 48 h).
Molecule `CCOC(=O)NC(Nc1ccc([N+](=O)[O-])cc1)(C(F)(F)F)C(F)(F)F` has a TGI greater than 100 µM.
`C[N+]12CCCCC1C(CN1C(=O)Cc3c4ccccc4c(c4ccccc34)CC1=O)CCC2` (stereo unspecified) showed a TGI greater than 100 µM.
Molecule `CC(=O)O[C@H]1CC[C@@]2(C)C(=CC[C@H]3[C@@H]4C[C@H](N5CCOCC5)[C@H](OC(C)=O)[C@@]4(C)CC[C@@H]32)C1` has a TGI greater than 100 µM.
`CCC1(C)C=Cc2c(cc(O)c3c(=O)c4ccccc4n(C)c23)O1` (stereo unspecified) was tested, and the TGI was greater than 10 µM.
`O=[N+]([O-])/C(C(Cl)=C(Cl)Cl)=C(\N1CCCCC1)n1cncn1` gave a TGI of 30.2 µM.
Work on `O=C1c2cccnc2-c2nccc3c2c1nc1cc(Br)ccc13` yielded a TGI of 0.313 µM.
Work on `NC(CCC(=O)NC(CSCC1C(=O)Nc2ccccc21)C(=O)NCC(=O)O)C(=O)O` (stereo unspecified) yielded a TGI of 11.3 µM.
With `NNC(=O)CSc1nc2ccccc2c(=O)n1N` the TGI was greater than 100 µM.
`CC(=O)NC1c2ccccc2C(C)(C)C12CCC1(CC2)OCCO1` (stereo unspecified) was tested, and the TGI was greater than 100 µM.
`CC1=NNC(=O)C1C(CC(=O)c1c[nH]c2ccccc12)C(=O)O` (stereo unspecified) was tested, and the TGI was greater than 100 µM.
With `CN1COCc2c1ccc1cc3ccc4c(c3nc21)COCN4S(C)(=O)=O` the TGI was greater than 100 µM.
`Oc1cccc(-c2nc3cc(F)ccc3s2)c1` showed a TGI of 70.7 µM.
For `CC(C(O)Cc1ccccc1)N(C)N=Nc1ccc([N+](=O)[O-])cc1` (stereo unspecified), the TGI was 48.1 µM.
Work on `CC(C)NC(=O)OCCN=c1c2ccccc2ccc2ccccc12` yielded a TGI greater than 100 µM.
With `CN(C)CCOC1(Cc2ccc(F)cc2)CCC(C(C)(C)C)CC1` (stereo unspecified) the TGI was 27.5 µM and 24.8 µM.
In the case of `On1c(-c2ccccc2)nc2ccccc2c1=S`, the TGI is reported as greater than 100 µM.
In the case of `CSc1cnc2ccccc2c1SC1CN(Cc2ccccc2)c2ccccc2C1=O` (stereo unspecified), the TGI is reported as greater than 100 µM.
Work on `C=CC[C@]12C=C(OC)[C@@H](O)[C@](OC)(C(c3cc(OC)c4c(c3)OCO4)[C@H]1C)[C@H]2OC(C)=O` (stereo partly specified) yielded a TGI greater than 100 µM.
`Cn1c2ccccc2c(=NNc2cccc(C(=O)O)c2)c2ccccc21` showed a TGI of 32 µM.

These molecules were tested on HCT-116 colon (assay: NCI anticancer screen, dose series, 48 h).
Work on `CCOC(=O)NC(Nc1ccc([N+](=O)[O-])cc1)(C(F)(F)F)C(F)(F)F` yielded a TGI greater than 100 µM.
`C[N+]12CCCCC1C(CN1C(=O)Cc3c4ccccc4c(c4ccccc34)CC1=O)CCC2` (stereo unspecified) was tested, and the TGI was greater than 100 µM.
`CC(=O)O[C@H]1CC[C@@]2(C)C(=CC[C@H]3[C@@H]4C[C@H](N5CCOCC5)[C@H](OC(C)=O)[C@@]4(C)CC[C@@H]32)C1` showed a TGI greater than 100 µM.
`CCC1(C)C=Cc2c(cc(O)c3c(=O)c4ccccc4n(C)c23)O1` (stereo unspecified) was tested, and the TGI was greater than 10 µM.
Work on `O=[N+]([O-])/C(C(Cl)=C(Cl)Cl)=C(\N1CCCCC1)n1cncn1` yielded a TGI of 73.6 µM.
`O=C1c2cccnc2-c2nccc3c2c1nc1cc(Br)ccc13` was tested, and the TGI was 0.0762 µM.
Work on `NC(CCC(=O)NC(CSCC1C(=O)Nc2ccccc21)C(=O)NCC(=O)O)C(=O)O` (stereo unspecified) yielded a TGI of 9.27 µM.
In the case of `NNC(=O)CSc1nc2ccccc2c(=O)n1N`, the TGI is reported as greater than 100 µM.
Molecule `CC(=O)NC1c2ccccc2C(C)(C)C12CCC1(CC2)OCCO1` (stereo unspecified) has a TGI greater than 100 µM.
In the case of `CC1=NNC(=O)C1C(CC(=O)c1c[nH]c2ccccc12)C(=O)O` (stereo unspecified), the TGI is reported as greater than 100 µM.
Molecule `CN1COCc2c1ccc1cc3ccc4c(c3nc21)COCN4S(C)(=O)=O` has a TGI greater than 100 µM.
With `Oc1cccc(-c2nc3cc(F)ccc3s2)c1` the TGI was 53.8 µM.
With `CC(C(O)Cc1ccccc1)N(C)N=Nc1ccc([N+](=O)[O-])cc1` (stereo unspecified) the TGI was 30.2 µM.
`CC(C)NC(=O)OCCN=c1c2ccccc2ccc2ccccc12` was tested, and the TGI was greater than 100 µM.
For `CN(C)CCOC1(Cc2ccc(F)cc2)CCC(C(C)(C)C)CC1` (stereo unspecified), the TGI was 15.6 µM and 15.9 µM.
With `On1c(-c2ccccc2)nc2ccccc2c1=S` the TGI was greater than 100 µM.
With `CSc1cnc2ccccc2c1SC1CN(Cc2ccccc2)c2ccccc2C1=O` (stereo unspecified) the TGI was greater than 100 µM.
`C=CC[C@]12C=C(OC)[C@@H](O)[C@](OC)(C(c3cc(OC)c4c(c3)OCO4)[C@H]1C)[C@H]2OC(C)=O` (stereo partly specified) was tested, and the TGI was greater than 100 µM.
`Cn1c2ccccc2c(=NNc2cccc(C(=O)O)c2)c2ccccc21` showed a TGI of 28.2 µM.

These molecules were tested on MALME-3M melanoma (assay: NCI anticancer screen, dose series, 48 h).
With `CCOC(=O)NC(Nc1ccc([N+](=O)[O-])cc1)(C(F)(F)F)C(F)(F)F` the TGI was greater than 100 µM.
`C[N+]12CCCCC1C(CN1C(=O)Cc3c4ccccc4c(c4ccccc34)CC1=O)CCC2` (stereo unspecified) showed a TGI greater than 100 µM.
Work on `CC(=O)O[C@H]1CC[C@@]2(C)C(=CC[C@H]3[C@@H]4C[C@H](N5CCOCC5)[C@H](OC(C)=O)[C@@]4(C)CC[C@@H]32)C1` yielded a TGI greater than 100 µM.
Work on `CCC1(C)C=Cc2c(cc(O)c3c(=O)c4ccccc4n(C)c23)O1` (stereo unspecified) yielded a TGI greater than 10 µM.
`O=[N+]([O-])/C(C(Cl)=C(Cl)Cl)=C(\N1CCCCC1)n1cncn1` gave a TGI of 30.9 µM.
Molecule `O=C1c2cccnc2-c2nccc3c2c1nc1cc(Br)ccc13` has a TGI of 0.374 µM.
`NC(CCC(=O)NC(CSCC1C(=O)Nc2ccccc21)C(=O)NCC(=O)O)C(=O)O` (stereo unspecified) showed a TGI of 20 µM.
In the case of `NNC(=O)CSc1nc2ccccc2c(=O)n1N`, the TGI is reported as greater than 100 µM.
In the case of `CC(=O)NC1c2ccccc2C(C)(C)C12CCC1(CC2)OCCO1` (stereo unspecified), the TGI is reported as greater than 100 µM.
With `CC1=NNC(=O)C1C(CC(=O)c1c[nH]c2ccccc12)C(=O)O` (stereo unspecified) the TGI was greater than 100 µM.
`CN1COCc2c1ccc1cc3ccc4c(c3nc21)COCN4S(C)(=O)=O` showed a TGI greater than 100 µM.
With `Oc1cccc(-c2nc3cc(F)ccc3s2)c1` the TGI was 48.6 µM.
Work on `CC(C(O)Cc1ccccc1)N(C)N=Nc1ccc([N+](=O)[O-])cc1` (stereo unspecified) yielded a TGI of 43.3 µM.
`CC(C)NC(=O)OCCN=c1c2ccccc2ccc2ccccc12` was tested, and the TGI was greater than 100 µM.
`CN(C)CCOC1(Cc2ccc(F)cc2)CCC(C(C)(C)C)CC1` (stereo unspecified) was tested, and the TGI was 7.95 µM and 10.6 µM.
`On1c(-c2ccccc2)nc2ccccc2c1=S` gave a TGI greater than 100 µM.
With `CSc1cnc2ccccc2c1SC1CN(Cc2ccccc2)c2ccccc2C1=O` (stereo unspecified) the TGI was greater than 100 µM.
In the case of `C=CC[C@]12C=C(OC)[C@@H](O)[C@](OC)(C(c3cc(OC)c4c(c3)OCO4)[C@H]1C)[C@H]2OC(C)=O` (stereo partly specified), the TGI is reported as greater than 100 µM.
With `Cn1c2ccccc2c(=NNc2cccc(C(=O)O)c2)c2ccccc21` the TGI was 38.3 µM.

Each molecule was assayed on SK-MEL-28 melanoma (assay: NCI anticancer screen, dose series, 48 h).
Work on `CCOC(=O)NC(Nc1ccc([N+](=O)[O-])cc1)(C(F)(F)F)C(F)(F)F` yielded a TGI greater than 100 µM.
`C[N+]12CCCCC1C(CN1C(=O)Cc3c4ccccc4c(c4ccccc34)CC1=O)CCC2` (stereo unspecified) gave a TGI greater than 100 µM.
In the case of `CC(=O)O[C@H]1CC[C@@]2(C)C(=CC[C@H]3[C@@H]4C[C@H](N5CCOCC5)[C@H](OC(C)=O)[C@@]4(C)CC[C@@H]32)C1`, the TGI is reported as greater than 100 µM.
`CCC1(C)C=Cc2c(cc(O)c3c(=O)c4ccccc4n(C)c23)O1` (stereo unspecified) showed a TGI greater than 10 µM.
`O=[N+]([O-])/C(C(Cl)=C(Cl)Cl)=C(\N1CCCCC1)n1cncn1` showed a TGI of 37.5 µM.
Molecule `O=C1c2cccnc2-c2nccc3c2c1nc1cc(Br)ccc13` has a TGI of 0.325 µM.
`NC(CCC(=O)NC(CSCC1C(=O)Nc2ccccc21)C(=O)NCC(=O)O)C(=O)O` (stereo unspecified) gave a TGI of 14.5 µM.
Molecule `NNC(=O)CSc1nc2ccccc2c(=O)n1N` has a TGI greater than 100 µM.
Molecule `CC(=O)NC1c2ccccc2C(C)(C)C12CCC1(CC2)OCCO1` (stereo unspecified) has a TGI greater than 100 µM.
For `CC1=NNC(=O)C1C(CC(=O)c1c[nH]c2ccccc12)C(=O)O` (stereo unspecified), the TGI was greater than 100 µM.

From PubChem BioAssay (NCI)
